Results published in US20220073857A1, “THREE-DIMENSIONAL SUBSTRATE FOR MICROBIAL CULTURES” (POLITECNICO DI MILANO, priority 2018, published 2022).

Experiments:
[1] = Mucous barrier model: ability of molecules to cross a barrier (permeable support, “SUBSTRATE” or Mus^3SUB); type: in vitro ADME; conditions: interactive barrier, mucin in the “SUBSTRATE” (Mus^3SUB); FIG. 4
Procedure: “SUBSTRATE” and Mus^3SUB with the features referred to in Example 2 were tested for the ability thereof to mimic the mucous barrier.
The charts in FIG. 4 show the ability of said molecules to cross a barrier, where the barrier consists of a permeable support, “SUBSTRATE” or Mus^3SUB.

[2] = cited from earlier work

| transition of the drug across the barrier [1] | Structure (SMILES) | pKa [2] | log D7.4 ([2]; pH 7.4) |
| --- | --- | --- | --- |
| very quick | CC1=C(C(=O)O)N2C(=O)[C@@H](NC(=O)[C@H](N)c3ccccc3)[C@H]2SC1 [Cefalexin] |  |  |
| slowed | COc1cccc2c1C(=O)c1c(O)c3c(c(O)c1C2=O)C[C@@](O)(C(=O)CO)C[C@@H]3O[C@H]1C[C@H](N)[C@@H](O)[C@H](C)O1 [Epirubicin] | 8.01 | 0.03 |
